Measured values from patent US20140262287A1, “ENVIRONMENTALLY FRIENDLY QUATERNARY SALTS OF AMINES AND THEIR USE AS TEMPORARY AND/OR PERMANENT CLAY STABILIZERS AND METHODS FOR MAKING AND USING SAME” (CLEARWATER INTERNATIONAL, LLC, priority 2013, published 2014).

Assays:
[1] = Clay stabilization test (water separation from 1% clay solution); details: dosage 0.5 (wt. %/100 mL); 60 minutes; 100 mL of 1% clay solution; (Top)/(Middle) printed in cell
Method: (§1) Clay Solution Preparation
To make 100 mL of a clay solution, measure 1 g of Cream Bentonite Clay or Weatherford Bentonite Clay material. Add 99 g of distilled water and shake bottle until all the clay is dissolved.
Measure 100 ml of clay solution in a graduated cylinder. Shake 10 times. Record separation time and clay precipitation.
Measure 100 mL of clay solution in a graduated cylinder and add 0.5 mL of the desired clay stabilizer. Shake 10 times. Record separation time and clay coagulation. Record clay deposition, swelling and water release.

[2] = Linear Swell after 23 hours; 6000 ppm; Bentonite pellet
Method: The Linear Swell Meter was OFITE 115V Dynamic Linear Swell Meter Model #150-80. 14 g of Bentonite was added to a pelletizercompactor and 10,000 psi pressure was applied for 30 minutes. The pellet was removed from the compactor. Ensure all components of the Linear Swell Meter are clean: transfer stand, cap for wafer tube, bottom plate, magnetic stir bar, Teflon washer, and cup. With both the screens in the linear swell meter cell, the swell meter was zeroed out by clicking on the specific cell(s) to be zeroed out and clicked “apply”. One of the screens from the cell was removed and the pellet was added on top of the other screen. The other screen was put on top of the pellet. The transfer stand was gently placed on top of the pellet. The cell was placed on the magnetic stir plate underneath the linear variable differential transformer (LVDT) to make sure that the spindle was directly centered on top of the transfer stand. The fluid to be tested was poured through the hole on the cap for the wafer tube, the box was checked to start the cell and “apply” was clicked. Doing this will start the test for the specific cell.

[3] = test system: Fathead Minnow (pimephales promelas); assay: Acute toxicity minnow survival test; format: in vivo; details: for LC50: acute toxicity survival, Examples 4 and 5 range-finding and definitive test, TMAC and Example 3 range-finding test only; for toxicity to minnows compared with TMAC / prior art: comparison in words, data of Table II
Method: As a consequence, the “definitive” test gave a more precise LC50 value. LC50 was determined using a log-normal transformation coupled with linear regression between the bracketing no observed effect concentration (NOEC) and lowest observed effect concentration (LOEC). Both the range finding and definitive tests were run on Example 4 and Example 5. Only the ranging finding test was run for TMAC and Example 3.

[4] = Water release clay stabilization test; set-up: unit not given here; details: 100 mL of 1 wt. % Wyoming Bentonite clay solution
Method: as §1
To make 1 wt. % clay solution, 23 g of Wyoming Bentonite Clay and 2277 g of distilled water were added to a bottle and shaken until all the clay was dissolved. […]
Measure 100 mL of clay solution into 6 graduated cylinders. […] The addition of the clay stabilizers at 0.1 mL, 0.2 mL, 0.4 mL, 0.6 mL, 0.8 mL, and 1.0 mL in 100 mL of a clay solution corresponds to 1, 2, 4, 6, 8 and 10 Gallons per Thousand (or gpt). Invert the cylinders 20 times. Start timer and record separation time and clay coagulation. Record clay deposition, swelling and water release.

[5] = Capillary suction timer clay stabilization test; details: 2 g Bentonite in 100 g solution
Method: A rock sample was placed in a Gyral Grinder and grinding of the rock sample was begun. The rock sample was ground for 1 hour using a timer. The ground rock sample was placed into a 200-mesh sieve. The aggregate that passed through the sieve was placed in a pan for testing and placed to the side.
Using a 100 mL volumetric flask, a solution was prepared that will be used to mix with the rock sample. At least one solution should be prepared as the sample with straight tap water will be used as a reference blank. 100 g of solution was added to a 250 mL beaker equipped with a magnetic stir bar. A specified amount of each shale inhibitor was added to the beaker. The beaker was placed on stir plate and stirring was begun at a speed at which a vortex reaches the bottom of the beaker. 2 g of the untreated Bentonite sample was added and a timer was set for 5 minutes. After 5 minutes, the stir plate was turned off, the solution was poured into a 100 mL graduated cylinder, and a timer was set for 15 minutes. After 15 minutes, the mixture was poured back into the beaker, the beaker was placed on the magnetic stir plate and stirring was restarted on the plate. Wait until the vortex returned and the clay had become dispersed.
A Venture Innovations capillary suction timer (CST) from Venture Chemicals, Inc. in Lafayette, La. was used in the tests. Before each test, the test head, filter paper, and stainless steel funnel were cleaned and dried. Make sure the cable from the test head was plugged into the control box and the reading on the control box display was reset to zero. A piece of 7×9 cm CST filter paper from Venture Innovations Inc. (part no. IFP-9053) was placed on the test head with the stainless steel probes facing down. The stainless steel funnel was fitted into the test head.
Using a 5-mL syringe, 5-mL of sample was withdrawn from the vortex. Consecutive samples were removed from the same position in the vortex, where the previous sample was taken. A 5 mL sample was charged into the stainless steel funnel. The 5 mL sample charge was repeated twice more. Instrument started automatically when a beep sounds from the control box. When this beep sounded, the timer started. […]

Compound	Final Water (mL) [1]	% Swell [2] [%]	LC50 [3] [µg/mL]	toxicity to minnows compared with TMAC / prior art [3]	WR (water release at 60 minutes) 2.0 gpt [4]	WR (water release at 60 minutes) 4.0 gpt [4]	WR (water release at 60 minutes) 6.0 gpt [4]	WR (water release at 60 minutes) 8.0 gpt [4]	WR (water release at 60 minutes) 10.0 gpt [4]	CST Time ([5]; CST concentration 4000 ppm) [s]	CST Time ([5]; CST concentration 5000 ppm) [s]	CST Time ([5]; CST concentration 6000 ppm) [s]
C[N+](C)(C)CCO.[Cl-] [Choline Chloride, reference compound]	27 mL/60 minutes (Top)	88.9										
OCC[N+](CCO)(CCO)Cc1ccccc1.[Cl-] [Example 4]			3160	much less toxic than TMAC	27	33	34	33	32	18		
CCOS(=O)(=O)[O-].CC[N+](CCO)(CCO)CCO [Example 5]	20 mL/60 minutes (Middle)		6030	much less toxic than TMAC	2	9	22	26	31	90	68	92
C[N+](C)(C)C.[Cl-] [tetramethylammonium chloride, reference compound]			737									
